Laboratory results as given in the NIST ThermoML archive (doi:10.1016/j.tca.2016.04.013).

Columns and labels:
[1] = molar heat capacity at constant pressure; conditions: 101.33 kPa, Crystal, relaxation calorimetry
[2] = 101.33 kPa, Crystal, relaxation calorimetry

Oc1ncc(Cl)c(O)n1 [5-chloro-2,4-pyrimidinedione]
Conditions | molar entropy, [2] [J/K/mol] | molar heat capacity at constant pressure, [1] [J/K/mol]
0.5 K | 0.000378 | 0.000485
1 K | 0.00108 | 0.00194
2 K | 0.00473 | 0.0116
2.04 K | – | 0.0119
2.26 K | – | 0.0165
2.51 K | – | 0.0224
2.79 K | – | 0.0297
3 K | 0.0135 | 0.0367
3.1 K | – | 0.0407
3.44 K | – | 0.0549
3.82 K | – | 0.0739
4 K | 0.0301 | 0.085
4.24 K | – | 0.101
4.71 K | – | 0.138
5 K | 0.0569 | 0.164
5.24 K | – | 0.188
5.81 K | – | 0.257
6 K | 0.0966 | 0.282
6.44 K | – | 0.35
7 K | 0.152 | 0.446
7.17 K | – | 0.479
7.91 K | – | 0.649
8 K | 0.225 | 0.665
8.78 K | – | 0.878
9 K | 0.319 | 0.945
9.74 K | – | 1.19
10 K | 0.435 | 1.28
10.81 K | – | 1.59
11.99 K | – | 2.14
13.31 K | – | 2.79
14.74 K | – | 3.64
15 K | 1.39 | 3.81
16.35 K | – | 4.68
18.13 K | – | 6.06
20 K | 2.96 | 7.44
20.12 K | – | 7.49
22.32 K | – | 9.36
24.77 K | – | 11.49
25 K | 5.07 | 11.69
27.49 K | – | 13.93
30 K | 7.59 | 16.14
30.5 K | – | 16.6
33.86 K | – | 19.52
35 K | 10.42 | 20.57
37.57 K | – | 22.81
40 K | 13.44 | 24.87
41.69 K | – | 26.3
45 K | 16.61 | 28.97
46.26 K | – | 29.88
50 K | 19.87 | 32.81
51.34 K | – | 34.08
56.96 K | – | 37.64
60 K | 26.48 | 39.81
63.23 K | – | 41.77
70 K | 33.09 | 45.98
70.19 K | – | 45.99
77.89 K | – | 50.5
80 K | 39.6 | 51.52
86.44 K | – | 54.98
90 K | 45.96 | 56.6
95.96 K | – | 59.39
100 K | 52.17 | 61.33
106.02 K | – | 64.02
110 K | 58.23 | 65.83
116.12 K | – | 68.52
120 K | 64.15 | 70.16
126.18 K | – | 72.83
130 K | 69.93 | 74.35
136.3 K | – | 76.98
140 K | 75.59 | 78.45
146.41 K | – | 80.91
150 K | 81.14 | 82.47
156.52 K | – | 84.91
160 K | 86.59 | 86.42
166.6 K | – | 89.11
170 K | 91.94 | 90.33
176.69 K | – | 92.91
180 K | 97.22 | 94.19
186.77 K | – | 96.98
190 K | 102.41 | 98.02
196.85 K | – | 100.43
200 K | 107.53 | 101.81
206.94 K | – | 104.46
210 K | 112.59 | 105.58
217.03 K | – | 107.97
220 K | 117.59 | 109.32
227.26 K | – | 112.17
230 K | 122.53 | 113.04
234.67 K | – | 114.85
240 K | 127.42 | 116.74
244.74 K | – | 118.78
250 K | 132.26 | 120.42
254.84 K | – | 122.35
260 K | 137.06 | 124.08
264.91 K | – | 125.73
270 K | 141.81 | 127.73
273.15 K | 143.3 | 128.88
275 K | – | 129.5
280 K | 146.52 | 131.37
285.08 K | – | 132.72
290 K | 151.19 | 135
295.37 K | – | 136.73
298.15 K | 154.97 | 137.95
300 K | 155.83 | 138.62
302.71 K | – | 140.1

O=c1cc(Cl)[nH]c(=O)[nH]1 [6-chlorouracil]
Conditions | molar entropy, [2] [J/K/mol] | molar heat capacity at constant pressure, [1] [J/K/mol]
0.5 K | 0.00109 | 0.00126
1 K | 0.00269 | 0.00405
1.93 K | – | 0.0182
2 K | 0.00944 | 0.0203
2.15 K | – | 0.0242
2.38 K | – | 0.0322
2.65 K | – | 0.043
2.95 K | – | 0.0584
3 K | 0.0242 | 0.0602
3.27 K | – | 0.0782
3.63 K | – | 0.103
4 K | 0.0508 | 0.135
4.04 K | – | 0.139
4.48 K | – | 0.186
4.98 K | – | 0.247
5 K | 0.0926 | 0.252
5.52 K | – | 0.332
6 K | 0.152 | 0.415
6.12 K | – | 0.436
6.79 K | – | 0.58
7 K | 0.232 | 0.631
7.53 K | – | 0.771
8 K | 0.333 | 0.908
8.35 K | – | 1.02
9 K | 0.459 | 1.25
9.26 K | – | 1.35
10 K | 0.612 | 1.66
10.25 K | – | 1.77
11.34 K | – | 2.31
12.58 K | – | 3.02
13.97 K | – | 3.91
15 K | 1.8 | 4.63
15.49 K | – | 4.99
17.19 K | – | 6.32
19.09 K | – | 7.91
20 K | 3.67 | 8.68
21.19 K | – | 9.7
23.51 K | – | 11.78
25 K | 6.08 | 13.17
26.09 K | – | 14.1
28.91 K | – | 16.74
30 K | 8.88 | 17.67
32.12 K | – | 19.59
35 K | 11.94 | 22.04
35.65 K | – | 22.58
39.54 K | – | 25.93
40 K | 15.15 | 26.22
43.88 K | – | 29.29
45 K | 18.47 | 30.18
48.68 K | – | 32.81
50 K | 21.85 | 33.87
54.02 K | – | 36.6
59.94 K | – | 40.61
60 K | 28.63 | 40.68
66.52 K | – | 44.81
70 K | 35.37 | 46.77
73.83 K | – | 48.95
80 K | 41.97 | 52.2
81.96 K | – | 53.22
90 K | 48.41 | 57.15
90.91 K | – | 57.53
100 K | 54.67 | 61.75
100.89 K | – | 61.78
110 K | 60.76 | 66.1
111.04 K | – | 66.68
120 K | 66.7 | 70.26
121.13 K | – | 70.82
130 K | 72.48 | 74.29
131.15 K | – | 74.92
140 K | 78.13 | 78.22
141.29 K | – | 78.76
150 K | 83.66 | 82.08
151.38 K | – | 82.6
160 K | 89.08 | 85.89
161.47 K | – | 86.43
170 K | 94.4 | 89.66
171.56 K | – | 90.19
180 K | 99.63 | 93.41
181.61 K | – | 94.08
190 K | 104.78 | 97.14
191.69 K | – | 97.83
200 K | 109.85 | 100.85
201.81 K | – | 101.23
210 K | 114.86 | 104.56
211.89 K | – | 105.16
220 K | 119.81 | 108.26
222 K | – | 108.99
230 K | 124.71 | 111.96
232.08 K | – | 112.88
240 K | 129.55 | 115.64
242.1 K | – | 116.48
250 K | 134.35 | 119.33
252.19 K | – | 120.07
260 K | 139.1 | 123
262.33 K | – | 123.73
270 K | 143.81 | 126.67
272.41 K | – | 127.71
273.15 K | 145.28 | 127.82
280 K | 148.48 | 130.33
282.41 K | – | 131.41
290 K | 153.12 | 133.98
292.56 K | – | 134.98
298.15 K | 156.87 | 136.94
300 K | 157.72 | 137.62
302.57 K | – | 138.3
